Laboratory results: ChEMBL document CHEMBL1201862, “PubChem BioAssay data set” (2004)
Activity calls are given as the source filed them.

How the values were obtained:
[1] = biological target: T1, Endoribonuclease toxin MazF (Escherichia coli K-12, UniProt P0AE70); assay: MazF toxin RNase activators, dose response, biochemical, fluorescence, single-stranded RNA substrate, uHTS hits (AID 588481); type: functional
T1 sequence (P0AE70 whole entry): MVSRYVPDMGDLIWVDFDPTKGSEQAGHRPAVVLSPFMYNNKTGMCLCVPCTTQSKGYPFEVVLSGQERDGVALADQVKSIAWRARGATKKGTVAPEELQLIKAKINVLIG

[2] = biological target: T1, Endoribonuclease toxin MazF; assay: fluorescent RNA oligo signal without MazF, dose response, counter-screen for MazEF activator project, biochemical, fluorescence, single-stranded RNase substrate (AID 588502); type: functional
[3] = THP-1 cell cytotoxicity, dose response, cytotoxicity control for Vif-APOBEC3G degradation inhibitor project, THP-1 cells (AID 1117359); type: functional; conditions: Human immunodeficiency virus 1, THP-1
[4] = inhibitors of Vif binding to APOBEC3G peptide, primary screen, biochemical, TR-FRET, GST-Vif 1-94, biotin-A3G peptide, dose response retest (AID 1117319); type: functional;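 further: TR-FRET signal of purified GST-Vif binding a biotinylated A3G peptide; inhibitors lower the FRET signal by blocking Vif and A3G binding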
Estrogen receptor = biological target: T2, Estrogen receptor (Homo sapiens, UniProt P03372);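 further: potency for inhibiting coactivator peptide recruitment to the receptor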
T2 sequence (P03372 whole entry): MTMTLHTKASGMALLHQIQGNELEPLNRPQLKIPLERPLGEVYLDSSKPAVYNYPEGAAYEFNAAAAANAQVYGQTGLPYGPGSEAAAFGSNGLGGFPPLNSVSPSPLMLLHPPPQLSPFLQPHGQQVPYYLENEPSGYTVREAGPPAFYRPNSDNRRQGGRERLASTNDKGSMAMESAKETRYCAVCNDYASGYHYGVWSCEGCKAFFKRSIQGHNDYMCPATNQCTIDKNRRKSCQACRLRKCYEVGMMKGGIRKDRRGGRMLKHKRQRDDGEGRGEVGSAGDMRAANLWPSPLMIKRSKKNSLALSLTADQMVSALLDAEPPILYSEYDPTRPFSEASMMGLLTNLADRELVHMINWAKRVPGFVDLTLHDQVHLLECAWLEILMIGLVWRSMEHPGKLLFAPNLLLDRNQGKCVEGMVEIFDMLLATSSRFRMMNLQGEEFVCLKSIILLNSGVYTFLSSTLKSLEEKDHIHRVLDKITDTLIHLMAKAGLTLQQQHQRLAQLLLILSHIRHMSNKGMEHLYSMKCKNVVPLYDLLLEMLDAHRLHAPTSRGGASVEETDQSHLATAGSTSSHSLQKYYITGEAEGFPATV

Major prion protein = Major prion protein (Homo sapiens, UniProt P04156); type: functional, cell-based
Cytochrome P450 1A2 = biological target: T3, Cytochrome P450 1A2 (Homo sapiens, UniProt P05177);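 further: PubChem cytochrome P450 panel assay, CYP1A2 panel member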
T3 sequence (P05177 whole entry): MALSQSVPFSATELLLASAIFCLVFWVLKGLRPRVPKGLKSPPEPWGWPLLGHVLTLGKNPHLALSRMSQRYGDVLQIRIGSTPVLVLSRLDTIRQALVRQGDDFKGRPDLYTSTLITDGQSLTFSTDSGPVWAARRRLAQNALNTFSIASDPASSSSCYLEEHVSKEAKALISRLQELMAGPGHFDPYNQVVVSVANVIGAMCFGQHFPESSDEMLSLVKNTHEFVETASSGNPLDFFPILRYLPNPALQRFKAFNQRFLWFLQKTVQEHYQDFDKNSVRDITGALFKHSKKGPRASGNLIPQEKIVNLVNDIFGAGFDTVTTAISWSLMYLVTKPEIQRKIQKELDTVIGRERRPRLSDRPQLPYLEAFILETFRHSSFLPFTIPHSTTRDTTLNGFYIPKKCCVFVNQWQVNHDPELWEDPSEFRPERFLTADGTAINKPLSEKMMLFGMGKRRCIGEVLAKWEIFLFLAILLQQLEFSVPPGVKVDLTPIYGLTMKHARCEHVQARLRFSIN

[5] = A cytotoxicity screen of small molecule inhibitors of the PhoP region in Salmonella typhi identified in the primary screen. [Related pubchem assays: 1850, 1864, 1985 ]; type: functional
[6] = Luminescence Cell-Based Dose Retest to Confirm Inhibitors of Cancer Stem Cells. [Related pubchem assays (depositor defined):AID2717, AID2721]; type: functional; conditions: Homo sapiens
[7] = biological target: T4, Histone-lysine N-methyltransferase NSD2 (Homo sapiens, UniProt O96028); type: biochemical
T4 sequence (O96028 whole entry): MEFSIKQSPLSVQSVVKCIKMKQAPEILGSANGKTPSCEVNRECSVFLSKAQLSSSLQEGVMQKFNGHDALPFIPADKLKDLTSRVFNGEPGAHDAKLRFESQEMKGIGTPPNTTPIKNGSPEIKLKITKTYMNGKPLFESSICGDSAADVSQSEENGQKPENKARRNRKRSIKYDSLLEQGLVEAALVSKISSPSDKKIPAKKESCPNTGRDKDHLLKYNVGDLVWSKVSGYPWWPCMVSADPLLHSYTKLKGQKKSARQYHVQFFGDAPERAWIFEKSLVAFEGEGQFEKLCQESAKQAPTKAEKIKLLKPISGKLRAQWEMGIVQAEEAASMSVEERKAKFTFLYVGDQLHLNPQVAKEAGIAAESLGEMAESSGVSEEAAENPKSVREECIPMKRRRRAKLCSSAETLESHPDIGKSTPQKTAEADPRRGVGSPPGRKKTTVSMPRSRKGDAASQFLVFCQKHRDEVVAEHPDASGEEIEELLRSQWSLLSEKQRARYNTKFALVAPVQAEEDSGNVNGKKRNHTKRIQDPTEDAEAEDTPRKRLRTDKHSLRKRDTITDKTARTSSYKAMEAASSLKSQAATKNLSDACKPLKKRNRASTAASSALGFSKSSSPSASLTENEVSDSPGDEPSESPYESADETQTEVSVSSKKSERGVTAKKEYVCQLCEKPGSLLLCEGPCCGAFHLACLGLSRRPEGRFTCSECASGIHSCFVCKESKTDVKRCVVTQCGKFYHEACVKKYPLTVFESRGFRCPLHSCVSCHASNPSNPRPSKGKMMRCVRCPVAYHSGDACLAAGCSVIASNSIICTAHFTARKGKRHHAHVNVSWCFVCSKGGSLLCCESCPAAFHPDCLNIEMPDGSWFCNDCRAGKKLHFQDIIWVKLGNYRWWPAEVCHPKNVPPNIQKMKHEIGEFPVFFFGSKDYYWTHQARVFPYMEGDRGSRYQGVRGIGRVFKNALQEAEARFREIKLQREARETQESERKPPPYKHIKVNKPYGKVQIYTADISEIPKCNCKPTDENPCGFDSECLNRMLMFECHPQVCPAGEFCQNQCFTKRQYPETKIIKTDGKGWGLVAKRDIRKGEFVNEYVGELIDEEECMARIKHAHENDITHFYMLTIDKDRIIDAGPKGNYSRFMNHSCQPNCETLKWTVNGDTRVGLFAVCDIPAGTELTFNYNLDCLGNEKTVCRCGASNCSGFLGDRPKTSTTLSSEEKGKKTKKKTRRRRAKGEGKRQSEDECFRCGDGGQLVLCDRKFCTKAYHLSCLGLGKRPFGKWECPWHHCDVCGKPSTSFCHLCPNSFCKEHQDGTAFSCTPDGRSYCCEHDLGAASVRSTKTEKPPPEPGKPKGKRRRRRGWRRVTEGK

[8] = biological target: T5, Heat shock factor protein 1 (Mus musculus, UniProt P38532); assay: inhibition of MG132-induced HSE-luciferase signal, confirmation, cell-based, NIH3T3, luminescence, dose retest (AID 2382); type: functional;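 further: NIH3T3 fibroblasts with HSF1-driven luciferase reporter stressed by proteasome inhibitor MG132; luminescence from HSF1-driven luciferase expression after 8 hours of MG132 stress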
T5 sequence (P38532 whole entry): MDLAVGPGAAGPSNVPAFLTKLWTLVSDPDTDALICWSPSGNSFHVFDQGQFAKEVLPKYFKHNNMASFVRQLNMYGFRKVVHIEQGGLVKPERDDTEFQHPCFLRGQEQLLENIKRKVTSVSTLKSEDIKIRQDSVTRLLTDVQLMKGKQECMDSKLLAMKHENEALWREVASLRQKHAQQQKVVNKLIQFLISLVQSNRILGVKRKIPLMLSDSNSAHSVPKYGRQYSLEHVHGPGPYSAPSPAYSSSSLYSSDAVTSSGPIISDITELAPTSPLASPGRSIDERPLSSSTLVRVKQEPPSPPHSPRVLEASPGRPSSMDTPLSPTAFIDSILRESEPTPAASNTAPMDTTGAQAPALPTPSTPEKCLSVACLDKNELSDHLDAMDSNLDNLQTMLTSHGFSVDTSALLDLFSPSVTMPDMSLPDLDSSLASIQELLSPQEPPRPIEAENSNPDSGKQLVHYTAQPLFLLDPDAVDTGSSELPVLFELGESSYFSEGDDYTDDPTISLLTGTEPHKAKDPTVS

[9] = inhibitors of intracellular T. cruzi replication, confirmation, NIH3T3 host cells, beta-gal luminescence (AID 2044); type: functional, cell-based;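 further: intracellular parasites grown in NIH/3T3 mouse fibroblasts as host cells; luminescent beta-galactosidase reporter signal from transgenic T. cruzi replicating inside host cells; inhibitors lower the luminescence signal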
[10] = cytotoxicity toward NIH3T3 fibroblasts, dose response, counter-screen, cell-based, ATP luminescence, mouse fibroblasts (AID 2010); type: functional;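 further: cells exposed to compound for about 90 hours before reading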
[11] = biological target: Glyceraldehyde-3-phosphate dehydrogenase (Homo sapiens, UniProt P04406)
[12] = HEp-2 cell cytotoxicity, dose response, cytotoxicity control for RSV inhibitor project, HTS (AID 2410); type: functional; conditions: human respiratory syncytial virus
[13] = test system: Streptococcus sp. 'group A'; assay: growth inhibition of control SK(-) GAS strain, dose response, counter-screen for streptokinase expression inhibitor project, luminescence, kanamycin, BacTiterGlo, confirmation (AID 1900); type: functional, organism-based
Streptokinase A = biological target: T6, Streptokinase A (Streptococcus pyogenes serotype M1, UniProt P10520); assay: S. pyogenes streptokinase expression inhibitors, potency, dose response, plasminogen activation absorbance, OD405 (AID 1914); type: functional, Streptococcus pyogenes M1 GAS;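 further: secreted streptokinase activity via plasminogen activation per viability signal from cell pellet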
T6 sequence (P10520 whole entry): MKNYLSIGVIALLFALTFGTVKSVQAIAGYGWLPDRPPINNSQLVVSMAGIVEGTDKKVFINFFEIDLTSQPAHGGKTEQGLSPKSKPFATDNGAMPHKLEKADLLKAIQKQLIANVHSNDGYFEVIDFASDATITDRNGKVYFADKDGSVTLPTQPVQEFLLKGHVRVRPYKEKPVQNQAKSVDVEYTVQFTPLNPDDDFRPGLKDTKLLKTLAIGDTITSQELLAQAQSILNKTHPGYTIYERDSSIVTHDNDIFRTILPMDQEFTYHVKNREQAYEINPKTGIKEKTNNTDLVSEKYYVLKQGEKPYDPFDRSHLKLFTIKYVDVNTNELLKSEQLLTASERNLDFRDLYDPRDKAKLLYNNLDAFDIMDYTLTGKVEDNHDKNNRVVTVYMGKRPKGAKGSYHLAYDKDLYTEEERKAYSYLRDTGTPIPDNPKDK

Streptococcus = assay: Group A Streptococcus viability loss, dose response, counter-screen for streptokinase expression inhibitor project, luminescence, BacTiterGlo (AID 1915); type: functional, organism-based;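 further: potency for reduction of bacterial viability or growth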
[14] = HeLa 2N DNA content increase, dose response, cell-based, IC50 (AID 1117349); type: functional
[15] = HeLa 4N DNA content increase, dose response, cell-based, IC50 (AID 1117351); type: functional

Cc1oc(C)c2c(=O)ccc3c(c12)OC(N)=C(C#N)C3c1ccccc1 (stereo unspecified)
EC50 [1]: > 99 µM (inactive)
EC50 [2]: > 99 µM (inactive)
CC50 [3]: > 40 µM (active)
IC50 [4]: > 52.5 µM (active)

O=C(Cc1cn2ccsc2n1)OCc1nc2ccccc2s1
IC50 (Estrogen receptor): 6.98 µM (active)

CCCc1nc(SCC(=O)NNC(=O)C2CCCCC2)c2ccccc2n1
IC50 (Major prion protein): 0.896 µM (active)
AC50 (Cytochrome P450 1A2): 15.8 µM (inconclusive)
IC50 (cells): > 138 µM (inactive)

CCC(C)(C)NC(=O)COc1ccc(C(=O)c2ccccc2)cc1
EC50 [5]: > 50 µM (active)

CS(=O)(=O)c1cnc2c(-c3ccsc3)cnn2c1N
EC50 [5]: > 50 µM (active)

CCN(CC)CCCNC(=O)c1cc2c(Cl)nc3ccccc3c2s1
AC50 [6]: 1.58 µM (active)
AC50 [7]: 16.8 µM (active)

O=C(Cn1ccc([N+](=O)[O-])n1)N1CCCc2ccccc21
IC50 [4]: > 100 µM (active)

COC(=O)COc1ccc2c(c1C)O/C(=C\c1ccco1)C2=O
EC50 [8]: > 195 µM (not active)
IC50 [4]: > 100 µM (active)

CC(=O)Nc1ccc2nc(C)cc(O)c2c1
IC50 (Estrogen receptor): 21 µM (active)

CC(=O)NC(CSc1cc(C)nc2ccc(Br)cc12)C(=O)O (stereo unspecified)
IC50 (Major prion protein): 4.48 µM (active)
IC50 (cells): > 138 µM (inactive)

NC(=O)C1(N2CCCCC2)CCN(c2nc(-c3ccc(Br)cc3)cs2)CC1
IC50 (Estrogen receptor): 37.8 µM (not active)
EC50 [9]: 1.78 µM (active)
EC50 [10]: > 60 µM (inconclusive)

Cc1c(Br)cc(C(=O)NCc2ccco2)c(C)c1C
IC50 (Estrogen receptor): > 50 µM (not active)

Cc1cc(C)c([C@@H]2C[C@H]3CN(C4CCCC4)C(=O)[C@]34CCCN24)c(-n2cccn2)c1
EC50 [5]: > 50 µM (active)

NCCc1c(C(=O)O)[nH]c2ccc(S(N)(=O)=O)cc12
IC50 [11]: > 100 µM (not active)

CC1(C)OC(=O)C(=Cc2ccc(I)o2)C(=O)O1
IC50 [11]: > 100 µM (not active)

COc1ccc(-c2csc(Nc3ccc(S(=O)(=O)Nc4cc(C)on4)cc3)n2)cc1C
CC50 [12]: 8.8 µM (active)
EC50 [13]: 5.7 µM (active)
EC50 (Streptokinase A): > 150 µM (not active)
EC50 (Streptococcus): 10.7 µM (active)
AC50 [7]: 11.9 µM (active)

Cc1c(Br)c(=O)oc2cc(OCC(=O)N3C[C@H]4C[C@@H](C3)c3cccc(=O)n3C4)ccc12
IC50 (Major prion protein): 8.34 µM (active)
IC50 (cells): > 138 µM (inactive)

C=CC(=O)Nc1cc2c(Nc3ccc(F)c(Cl)c3)ncnc2cc1OCCCN1CCOCC1 [CANERTINIB]
IC50 [14]: 8.87 µM (inactive)
IC50 [15]: > 10 µM (inactive)

Cc1cc(O)c2ccccc2c1O [VITAMIN K3H2]
IC50 [14]: > 10 µM (inactive)
IC50 [15]: > 10 µM (inactive)
